Experimental data as given in US20260132103A1, “Bumetanide Derivatives for the Therapy of Stroke and Other Neurological Diseases/Disorders Involving NKCCs” (University of Pittsburgh - Of the Commonwealth System of …, priority 2018, published 2026).

Key:
[1] = tested on: transient focal cerebral ischemia (tMCAO) in mice; test: Body weight and survival 1-14 days after tMCAO; assay type: in vivo, mouse; settings: for body weight changes: 1-14 days after tMCAO, versus DMSO Veh control; for mortality rate: between 1-14 days post tMCAO, BMT 10, STS5 13, STS66 12 mg/kg/day i.p.
Method: FIGS. 1A-1C: Efficacy of NKCC1 inhibitors in reducing ischemic infarction, cerebral edema, and the post-stroke survival in normotensive mice after tMCAO (see Example 3). (1A) Experimental protocol and data collection. Transient middle cerebral artery occlusion (tMCAO) was induced in normal C57/b6 mice. DMSO, BMT (10 mg/kg body weight), STS5 (13 mg/kg) or STS66 (12 mg/kg) was administered via intraperitoneal injection (i.p.) as described in method. (1 B) Representative TTC staining images in normotensive mice at 24 h reperfusion with quantitative analysis of infarct volume. Data are mean±SD, n=6-13 (male, n=3-9; female, n=3-4, *p<0.05). Scale: 5 mm. (1C) Percentage hemisphere swelling at 24 h reperfusion. Data are mean±SD, n=6-13, *p<0.05. (1D) Body weight change during 1-14 days after tMCAO. Data are mean±SD, n=5-9 (male, n=4; female, n=2, *p<0.05). (1E) Survival curve during 1-14 day after tMCAO. Data are mean±SD, n=5-9 (male, n=3-7; female, n=2, *p<0.05).
Transient focal cerebral ischemia was induced in mice by intraluminal occlusion of the left middle cerebral artery (MCA) for 50 min as described previously (Chen H et al., 2005). Mice were anesthetized with 3% isoflurane in 70%: 30% N2O/O2 until they were unresponsive to the tail pinch test. Animals were then fitted with a nose cone blowing 1.5% isoflurane for anesthesia maintenance. The left common carotid artery was exposed and the occipital artery branches of the external carotid artery were isolated and coagulated. The internal carotid artery was isolated and the extracranial branch was dissected and ligated. A rubber silicon-coated monofilament suture (6-0) was introduced into the internal carotid artery lumen and gently advanced approximately 8-9 mm to block the MCA blood flow for 50 min. The rectal temperature was maintained at 37.0±0.5° C. during surgery through a temperature-controlled heating pad. Achievement of ischemia was confirmed by monitoring regional cerebral blood flow (rCBF) with laser speckle contrast imager (Pericam). For reperfusion, the suture was withdrawn after the MCAO. The incision was closed and the mouse recovered under a heating lamp to maintain the core temperature (36.0-37.0° C.) during the 30-60 min recovery period. After recovery, animals were returned to their cages with free access to food and water.
Vehicle: DMSO (2 ml/kg body weight/day), the NKCC1 inhibitor bumetanide (BMT, 10 mg/kg body weight/day in DMSO), bumetanide's prodrug STS5 (13 mg/kg body weight/day in DMSO), or the novel NKCC1 inhibitor STS66 according to the invention (12 mg/kg body weight/day in DMSO) was administered via intraperitoneal injection (i.p). The initial half dose of the drugs (BMT, STS5, STS66) was given at 3 h after the onset of reperfusion and the second half dose at 8 h reperfusion in the tMCAO model.

[2] = tested on: transient focal cerebral ischemia (tMCAO) in mice; test: Grid walking foot-fault test after tMCAO; assay type: in vivo, mouse; settings: day 3 post-stroke
From the text: FIGS. 2A-2D: Efficacy of NKCC1 inhibitors on improving neurological function in mice after tMCAO (see Example 3). (A) Neurological score, (B) corner test, (C) foot-fault test, and (D)-(E) adhesive tape test during 1-14 day after tMCAO. Data are mean±SD, n=4-9. *p<0.05 for DMSO vs STS66, **p<0.05 for DMSO vs STS5, ***p<0.05 for DMSO vs BMT, #p<0.05 for BMT vs STS66, ###p<0.05 for STS5 vs STS66.
Transient focal cerebral ischemia was induced in mice by intraluminal occlusion of the left middle cerebral artery (MCA) for 50 min as described previously (Chen H et al., 2005). Mice were anesthetized with 3% isoflurane in 70%: 30% N2O/O2 until they were unresponsive to the tail pinch test. Animals were then fitted with a nose cone blowing 1.5% isoflurane for anesthesia maintenance. The left common carotid artery was exposed and the occipital artery branches of the external carotid artery were isolated and coagulated. The internal carotid artery was isolated and the extracranial branch was dissected and ligated. […]
The grid walking test is sensitive to deficits in descending motor control. […] The data were expressed as the number of foot fault errors made by the forelimbs contralateral to the injured hemisphere as a percentage of total steps (Jun Zhang, et al., 2017).

GL26 and SB28-GFP cells = test: BrdU proliferation assay; assay type: cell-based, mouse; settings: 48 h drug treatment, compared to BMT
Method: FIG. 7: BrdU incorporation of GL26 cells and SB28-GFP cells following 48 h drug treatment. Data are means±SEM from three independent experiments. **P<0.01, ***p<0.001, ****p<0.0001.
Cell proliferation of GL26 and SB28-GFP cells was measured by quantifying BrdU incorporation. GL26 cells (5×10^3 cells/well) or SB28-GFP cells (1×10^3 cells/well) were seeded in 96-well plates in 100 μL media. After 24 hours in culture, cells were incubated with fresh medium plus the following reagents: DMSO vehicle (Con-Veh), BMT (B, 10 μM), TMZ (100 μM), or TMZ+B for 48 h. BrdU was added in the last 4 h period of the whole 48 h incubation. The incorporation of BrdU into newly synthesized DNA of proliferating cells was detected by using a peroxidase-conjugated antibody which reacts with the thymidine analogue BrdU. Bound anti-BrdU-peroxidase conjugated antibody was measured by a substrate reaction, and then quantified colorimetrically by an ELISA plate reader (Spectra MAX 190, Molecular Devices, Sunnyvale, CA) at dual wavelength of 450/550 nm.

Row | Compound | body weight changes [1] | mortality rate [1] | foot-fault rate [2] | inhibition of cell proliferation (BrdU incorporation) (GL26 and SB28-GFP cells)
1 | CCCCNc1cc(C(=O)O)cc(S(N)(=O)=O)c1Oc1ccccc1 [BMT, 3-(butylamino)-4-phenoxy-5-sulfamoylbenzoic acid, reference compound] | no differences in the body weight changes | ~16.7% | – | –
2 | CCCCNc1cc(CNCC(F)(F)F)cc(S(N)(=O)=O)c1Oc1ccccc1 [STS66, 3-(Butylamino)-2-phenoxy-5-[(2,2,2-trifluoroethylamino)methyl]benzenesulfonamide] | no differences in the body weight changes | none of the STS66-treated mice died | 12.5±2.5% | more inhibition of GL26 and SB28-GFP cell proliferation than BMT
